For one compound, excess molar enthalpy results are on record in the NIST ThermoML archive (doi:10.1016/j.tca.2005.06.011).

SMILES strings stand for the structures. ± gives the expanded uncertainty stated by the source.

This data set can be described thus: excess molar enthalpy (molar enthalpy of mixing); xn = mol fraction of the nth substance listed. To be noted: 298.15 K, 101 kPa, Liquid, Flow calorimetry.

With `CC(C)O` [propan-2-ol] + CCCO, the excess molar enthalpy (x2 = 0.2499) was -0.00906 ± 0.000263 kcal/mol, the excess molar enthalpy (x2 = 0.5) was -0.0108 ± 0.000263 kcal/mol and the excess molar enthalpy (x2 = 0.75) was -0.00837 ± 0.000239 kcal/mol.
